One test addresses T1, human TREM2 (Homo sapiens, UniProt Q9NZC2).
T1 construct: expressed in transfected cells; host or cells: HEK293T (HEK293T-hTREM2 cells)
In words: TREM2 agonist potency by cellular phosphorylation of Spleen Tyrosine Kinase (Syk), AlphaLisa, HEK293T-hTREM2 cells. It counts as cell-based.
Settings: not given
The procedure: Measurement of TREM2 agonist potency was done using a HEK cell line expressing human TREM2 and DAP12 (HEK293T-hTREM2 cells). Binding of small molecules to, and activation of, TREM2 increases the phosphorylation of Syk. The resultant levels of Syk phosphorylation are measured using a commercial AlphaLisa reagent kit. To perform the assay, HEK-hTREM2 cells were plated at 14,000 cells per well in a 384 well plate, in 25 μL of complete growth media and incubated at 37° C., 5% CO2 for 20-24 hours.
Prior to the assay, test compounds were diluted in the 384 well plates in assay buffer and allowed to equilibrate for 30 minutes. Growth media was removed from cell plates by inversion on blotting paper, and 25 μL of test articles in assay buffer was added to cells. Cells were incubated for 45 minutes at room temperature. After 45 minutes, assay buffer was removed and 10 μL of lysis buffer was added. Plates were shaken for 20 minutes at 350 RPM at room temperature. After complete lysis, AlphaLisa reagents were added to the lysate, and fluorescence intensity was measured using a Perkin Elmer Envision plate reader. Intensities were used to generate a standard curve, and % activation was calculated. Curve fitting was performed using Prism v9 software, log (agonist) vs response-variable slope (four parameters), and EC50s were calculated from the curve fit.
The results presented in Table B have been generated with the in vitro assay described above. This assay may be used to test any of the compounds described herein to assess and characterize a compound's ability to act as an agonist of TREM2.
In general terms: Bead proximity is the source of the signal in Alpha formats.
T1 sequence (Q9NZC2 19-230): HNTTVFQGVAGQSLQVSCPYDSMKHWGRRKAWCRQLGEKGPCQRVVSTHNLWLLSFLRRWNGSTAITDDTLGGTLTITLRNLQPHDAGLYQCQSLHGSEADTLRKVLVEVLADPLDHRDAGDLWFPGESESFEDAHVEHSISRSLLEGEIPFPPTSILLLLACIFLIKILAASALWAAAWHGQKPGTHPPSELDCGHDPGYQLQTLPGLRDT
T1 sequence (O43914 22-113 partner): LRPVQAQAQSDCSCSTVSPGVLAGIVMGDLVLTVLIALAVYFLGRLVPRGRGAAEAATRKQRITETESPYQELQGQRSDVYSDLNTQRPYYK
As usually defined, the EC50 is the concentration at which the effect is half-maximal. The molecule `Cc1cc2c(-c3ccc(F)cc3F)nc(N3C[C@@H](C)O[C@@H](c4ccc(=O)n(C)c4)C3)cc2nc1C` [Example 196, 5-((2S,6R)-4-(5-(2,4-difluorophenyl)-2,3-dimethyl-1,6-naphthyridin-7-yl)-6-methylmorpholin-2-yl)-1-methylpyridin-2 (1H)-one] showed a half-maximal effective concentration (EC50) of less than 0.1 µM. Same read-out and setting: the figure for `[2H]C([2H])([2H])n1cc([C@H]2C[C@@H](c3nc(-c4ccc(C(F)(F)F)cc4F)c4nc(OC)c(C)nc4n3)CCO2)ccc1=O` [Example 132, 5-[(2R,4S)-4-[4-[2-fluoro-4-(trifluoromethyl)phenyl]-6-methoxy-7-methyl-pteridin-2-yl]tetrahydropyran-2-yl]-1-(trideuteriomethyl)pyridin-2-one] is less than 0.1 µM.

The test is the same for the next values; noted with them: hTREM2 EC50 Data (HEK293 Cells); Syk phosphorylation, AlphaLisa; read-out: hTREM2 EC50.
Take `[2H]C([2H])([2H])n1cc([C@H]2C[C@@H](c3nc(C45CC(C(F)(F)F)(C4)C5)c4nc(OC)c(C)nc4n3)CCO2)cc(C)c1=O` [Example 149, 5-[(2R,4S)-4-[6-methoxy-7-methyl-4-[3-(trifluoromethyl)-1-bicyclo-[1.1.1]pentanyl]pteridin-2-yl]tetrahydropyran-2-yl]-3-methyl-1-(trideuteriomethyl)-pyridin-2-one]: the EC50 was less than 0.1 µM.

In the case of `Cc1cnc2nc([C@H]3CCO[C@@H](c4ccc(=O)[nH]c4)C3)nc(C34CC(C(F)(F)F)(C3)C4)c2n1` [Example 197, 5-((2R,4S)-4-(6-methyl-4-(3-(trifluoromethyl)bicyclo[1.1.1]pentan-1-yl)pteridin-2-yl)tetrahydro-2H-pyran-2-yl)pyridin-2(1H)-one], the EC50 is 0.1 to 0.5 µM. Still for that read-out and setting: to `CCCNn1cc([C@H]2C[C@@H](c3nc(C45CC(C(F)(F)F)(C4)C5)c4nc(C)c(C)nc4n3)CCO2)ccc1=O` [Example 212, 5-[(2R,4S)-4-[6,7-dimethyl-4-[3-(trifluoromethyl)-1-bicyclo[1.1.1]pentanyl]pteridin-2-yl]tetrahydropyran-2-yl]-1-(propylamino)pyridin-2-one] belongs less than 0.1 µM.

Turning to `C[C@@H]1CN(c2nc(-c3ccc(F)cc3F)c3sc(N(C)C)nc3n2)C[C@H](c2ccc(=O)n(N)c2)O1` [Example 174, 1-amino-5-[(2S,6R)-4-[7-(2,4-difluorophenyl)-2-(dimethylamino)thiazolo[4,5-d]pyrimidin-5-yl]-6-methyl-morpholin-2-yl]pyridin-2-one], the EC50 was less than 0.1 µM. On the same count and under the same terms, the figure for `CN(C)c1nc2nc([C@H]3CCO[C@@H](c4ccc(=O)n(C)c4)C3)nc(C34CC(C(F)(F)F)(C3)C4)c2n1C` [Example 202, 5-((2R,4S)-4-(8-(dimethylamino)-7-methyl-6-(3-(trifluoromethyl)bicyclo[1.1.1]pentan-1-yl)-7H-purin-2-yl)tetrahydro-2H-pyran-2-yl)-1-methylpyridin-2 (1H)-one] is 0.1 to 0.5 µM; for `CCn1cc([C@H]2C[C@@H](c3nc(C45CC(C(F)(F)F)(C4)C5)c4nc(C)c(C)nc4n3)CCO2)ccc1=O` [Example 80, 5-[(2R,4S)-4-[6,7-dimethyl-4-[3-(trifluoromethyl)-1-bicyclo[1.1.1]pentanyl]pteridin-2-yl]tetrahydropyran-2-yl]-1-ethyl-pyridin-2-one] it is less than 0.1 µM. As for `Cc1nc2nc([C@@H]3CCO[C@H](c4ccc(=O)n(C)c4)C3)nc(C34CC(C(F)(F)F)(C3)C4)c2nc1C` [Example 26, 5-[(2S,4R)-4-[6,7-dimethyl-4-[3-(trifluoromethyl)-1-bicyclo[1.1.1]-pentanyl]pteridin-2-yl]tetrahydropyran-2-yl]-1-methyl-pyridin-2-one], the EC50 is less than 0.1 µM.

In the case of `Cc1cc2c(-c3ccc(F)cc3F)nc(N3C[C@@H](C)O[C@@H](c4ccc(=O)n(N)c4)C3)cc2nc1C` [Example 193, 1-amino-5-[(2S,6R)-4-[5-(2,4-difluorophenyl)-2,3-dimethyl-1,6-naphthyridin-7-yl]-6-methyl-morpholin-2-yl]pyridin-2-one], the EC50 was less than 0.1 µM. Still for that read-out and setting: to `Cc1nc2nc([C@@H]3CCO[C@H](c4ccc(=O)n(C5CC5)c4)C3)nc(C34CC(C(F)(F)F)(C3)C4)c2nc1C` [Example 75, 1-cyclopropyl-5-[(2S,4R)-4-[6,7-dimethyl-4-[3-(trifluoromethyl)-1-bicyclo[1.1.1]-pentanyl]-pteridin-2-yl]tetrahydropyran-2-yl]pyridin-2-one] belongs less than 0.1 µM. Same read-out and setting: the figure for `Cc1nc2nc([C@H]3CCO[C@@H](c4ccc(=O)n(C)c4)C3)nc(C34CC(C(F)(F)F)(C3)C4)c2nc1C1CC1` [Example 158, 1-methyl-5-[(2R,4S)-4-[6-cyclopropyl-7-methyl-4-[3-(trifluoro-methyl)-1-bicyclo[1.1.1]pentanyl]pteridin-2-yl]tetrahydropyran-2-yl]pyridin-2-one] is less than 0.1 µM.

For `Cc1nc2nc([C@H]3CCO[C@@H](c4ccc(=O)n(C)c4)C3)nc([C@H]3CC[C@H](F)CC3)c2nc1C` [Example 42, 5-((2R,4S)-4-(4-((1r,4S)-4-fluorocyclohexyl)-6,7-dimethyl-pteridin-2-yl)tetrahydro-2H-pyran-2-yl)-1-methylpyridin-2(1H)-one], the EC50 is less than 0.1 µM.

For the molecule `Cc1nc2nc([C@H]3CCO[C@@H](c4ccc(=O)n(-c5csc(C6CC6)c5)c4)C3)nc(C34CC(C(F)(F)F)(C3)C4)c2nc1C` [Example 112], the EC50 is less than 0.1 µM.

For the molecule `Cc1nc2c(C34CC(C(F)(F)F)(C3)C4)nc([C@@H]3CCO[C@H](c4ccc(=O)n(C)c4)C3)nc2nc1C1CC1` [Example 156, 1-methyl-5-[(2S,4R)-4-[7-cyclopropyl-6-methyl-4-[3-(trifluoro-methyl)-1-bicyclo[1.1.1]pentanyl]pteridin-2-yl]tetrahydropyran-2-yl]pyridin-2-one], the concentration for a half-maximal effect (EC50) is less than 0.1 µM. The same measure, in the same setting: the figure for `Cc1nc2nc([C@H]3CCO[C@@H](c4ccc(=O)n(N)c4)C3)nc(C34CC(C(F)(F)F)(C3)C4)c2cc1C(F)(F)F` [Example 332, 1-amino-5-((2R,4S)-4-(7-methyl-6-(trifluoromethyl)-4-(3-(trifluoromethyl)bicyclo[1.1.1]pentan-1-yl)pyrido[2,3-d]pyrimidin-2-yl)tetrahydro-2H-pyran-2-yl)pyridin-2 (1H)-one] is less than 0.1 µM; for `Cc1nc2nc([C@@H]3CCO[C@@H](c4ccc(=O)n(C)c4)C3)cc(C34CC(C(F)(F)F)(C3)C4)c2nc1C` [Example 169, 1-methyl-5-[(2R,4R)-4-[2,3-dimethyl-8-[3-(trifluoromethyl)-1-bicyclo-[1.1.1]pentanyl]pyrido[2,3-b]pyrazin-6-yl]tetrahydropyran-2-yl]pyridin-2-one] it is less than 0.1 µM; for `Cc1nc2nc(N3C[C@@H](C)O[C@@H](c4ccc(=O)n(N)c4)C3)nc(C34CC(C(F)(F)F)(C3)C4)c2nc1C1COC1` [Example 185, 1-amino-5-[(2S,6R)-6-methyl-4-[7-methyl-6-(oxetan-3-yl)-4-[3-(trifluoromethyl)-1-bicyclo[1.1.1]pentanyl]pteridin-2-yl]morpholin-2-yl]pyridin-2-one] it is 0.1 to 0.5 µM. On the same count and under the same terms, to `Cc1nc2nc([C@H]3CCO[C@@H](c4ccc(=O)n(C(F)F)c4)C3)nc(C34CC(C(F)(F)F)(C3)C4)c2nc1C` [Example 90] belongs less than 0.1 µM. In the case of `Cc1nc2nc([C@@H]3CCO[C@H](c4ccc(=O)n(CC(F)F)c4)C3)nc(C34CC(C(F)(F)F)(C3)C4)c2nc1C` [Example 72, 1-(2,2-difluoroethyl)-5-[(2S,4R)-4-[6,7-dimethyl-4-[3-(trifluoro-methyl)-1-bicyclo-[1.1.1]pentanyl]-pteridin-2-yl]tetrahydropyran-2-yl]pyridin-2-one], the EC50 was less than 0.1 µM. The same measure, in the same setting: the figure for `CN1Cc2c(cc([C@H]3CCO[C@@H](c4ccc(=O)n(C)c4)C3)nc2-c2ccc(C(F)(F)F)cc2F)C1=O` (single isomer, unassigned) [Example 165] is 0.1 to 0.5 µM; for `Cc1nc2nc([C@@H]3CCO[C@H](c4ccc(=O)n(C56CC(C5)C6)c4)C3)nc(C34CC(C(F)(F)F)(C3)C4)c2nc1C` [Example 121, 1-(1-bicyclo[1.1.1]pentanyl)-5-[(2S,4R)-4-[6,7-dimethyl-4-[3-(trifluoromethyl)-1-bicyclo[1.1.1]-pentanyl]pteridin-2-yl]tetrahydropyran-2-yl]pyridine-2-one] it is less than 0.1 µM; for `Cc1nc2nc([C@H]3CCO[C@@H](c4ccc(=O)n(C)c4)C3)nc(-c3ccc(C(F)(F)F)c(F)c3F)c2nc1C` [Example 18, 5-[(2R,4S)-4-[4-[2,3-difluoro-4-(trifluoromethyl)-phenyl]-6,7-dimethyl-pteridin-2-yl]tetrahydropyran-2-yl]-1-methyl-pyridin-2-one] it is 0.1 to 0.5 µM. Consider `Cc1nc2nc([C@H]3CCO[C@@H](c4ccc(=O)n(C)c4)C3)nc([C@H]3CC[C@@H](F)CC3)c2nc1C` [Example 43, 5-((2R,4S)-4-(4-((1s,4R)-4-fluorocyclohexyl)-6,7-dimethylpteridin-2-yl)tetrahydro-2H-pyran-2-yl)-1-methylpyridin-2(1H)-one], for which the concentration for a half-maximal effect (EC50) is less than 0.1 µM.

With `Cc1nc2nc(N3CCC(F)(F)C(c4ccc(=O)[nH]c4)C3)nc(-c3ccc(F)cc3F)c2nc1C` (stereo not shown) [Example 189, 5-[1-[4-(2,4-difluorophenyl)-6,7-dimethyl-pteridin-2-yl]-4,4-difluoro-3-piperidyl]-1H-pyridin-2-one], the EC50 was less than 0.1 µM.

Values taken from patent US20260356841A1, “HETEROCYCLIC PYRIDINONE COMPOUNDS AS TRIGGERING RECEPTOR EXPRESSED ON MYELOID CELLS 2 AGONISTS AND METHODS OF USE” (Vigil Neuroscience, Inc., priority 2023, published 2026).
